In article PMC5641551, “Chemical Proteomics for Target Discovery of Head-to-Tail Cyclized Mini-Proteins” (Frontiers in Chemistry, 2017):
No end group written: not given here.

System: GST-tagged 14-3-3β
Assay: co-precipitation of GST-tagged 14-3-3β with cyclotide probe and competitors
Type: binding
Procedure: Splenocytes or Jurkat cells were lysed with 25 mM Tris-HCl pH 7.4, 40 mM KCl, 2.5 mM MgSO4 2.5 mM CaCl2, 2% (v/v) glycerol, 1 mM EDTA under repeated freeze-thaw cycles and 10 min sonification. All experiments were performed in buffer with 1x complete protease inhibitor cocktail (Hoffman-La Roche, Basel, Switzerland). Cell membranes and debris were pelleted for 30 min at 16,000 × g and the supernatant corresponds to the “soluble cell lysate.” Protein concentration was determined using a bicinchoninic acid assay kit (Thermo Scientific) and DTT (1 mM) was added to keep redox potential constant during binding experiments. Photo-affinity pull down samples were submitted to denaturing sodium dodecyl sulfate polyacrylamide gel electrophoresis (PAGE). For immunoblotting according to earlier published protocols (Gruber et al., [2007]; Bergmayr et al., [2013]) proteins were semi-dry transferred onto a nitrocellulose membrane 0.45 μM (Amersham Protran, GE Healthcare, Austria) using a Fast Semi-dry blotter (Bio-Rad) at 0.25 mA per gel for 1 h. Primary rabbit anti-GFP antibody (1:5,000) was from Invitrogen (A6455), rabbit anti-GST antibody (1:2,500) from Abcam (ab9085), and mouse anti-human calcineurin subunit A antibody (1:2,000) clone BE2.1 from eBioscience. Secondary ECL anti-mouse (NA931V) or ECL anti-rabbit (NA934VS) IgG antibodies (1:10,000) were conjugated with horse radish peroxidase (GE Healthcare). Chemo-luminescence signals were detected on an imaging system FluorChem HD2 (Alpha Innotech, CA, United States). For silver staining protein gels were treated immediately after electrophoresis with fixing solution EtOH/ddH2O/acetic acid 50/40/10% (v/v/v) for 20 min. Gels had to be washed acid free, first with 50% (v/v) EtOH for 10 min and with ddH2O for 2 h. Gels were exposed to sensitization buffer 0.025% Na2S2O3 in ddH2O for 3 min, followed by 2 min wash with ddH2O. Gels were silver loaded using a 0.15% AgNO3 solution for 45 min in the dark. The protein bands were stained in development buffer formaldehyde/Na2CO3 0.04/2% (v/w) under rigorous shaking. The reaction was quenched with 5% (v/v) acetic acid solution and the gels were stored until further processing in the stopping buffer at 4°C. Pixel quantification was carried out using ImageJ v1.47 (National Institute for Health).
Biotin-LC-LC-labeled (ThermoFisher) peptides (1–5 nmoles) with or without ([…]) were incubated with Jurkat cell or murine splenocyte cell lysates (150–500 μg proteins) for 2 h at 4°C in the presence of protease inhibitors. UV-activation of photo-crosslinking moiety benzophenone was induced by irradiation at 360 nm on ice for 15 min (Stratalinker, Stratagene, CA, United States). […]

## CGETCVGGTCNTPGCKCSWPVCTRNGLPV (also: bicyclic or more (positions not given here)) [[T20K]kB1, synthetic cyclotide drug candidate, Thr20 to Lys mutant of kalata B1]
Conclusion in words from competition co-precipitation
  binding to 14-3-3 family proteins: can bind to 14-3-3 family proteins
Immunoblot and far Western blot, 2 h at 4°C, competitors 150–500-fold molar excess
  binding of probe [T20K,W23Bpa]kB1 to 14-3-3β in presence of competitor: significantly altered
